Experiments:
IMR32 cells = assay: Targeted LC-MS measurement of cellular MGx levels in IMR32 cells; format: cell-based; conditions: relative to DMSO
Text: FIG. 8A-H. MGx and glyoxylase activity regulates NRF2 activation. CBR-470-1 causes elevated MGx levels in cells. (a) Schematic depicting chemical derivatization and trapping of cellular MGx for analysis by targeted metabolomics using two unique fragment ions. (b, c) Daughter ion fragments (b) and resulting MS/MS quantification of MGx levels (c) in IMR32 cells treated with CBR-470-1, relative to DMSO (n=4). (d) Quantitative LC-MS/MS measurement of cellular MGx levels in IMR32 cells treated for 2 hours with CBR-470-1 or co-treated for 2 hours with CBR-470-1 and NAC (2 mM) relative to DMSO (n=4).
Quantitative Metabolomic Profiling. […] Metabolite peak transitions and retention times are listed in Table 2 and were confirmed by running standards for measured glycolytic, PPP, CAC and co-factor metabolites. 2-phosphoglycerate and 3-phosphoglycerate isomers were quantified in aggregate (2PG/3PG). Relative metabolite abundance was quantified by integrated peak area for the given MRM-transition, and all metabolite levels were normalized to internal standard extracted ion intensity values for d3-serine. These parameters were used to quantify all metabolites, with the exception of 1,3-BPG and MGx, which required chemical derivitization to stable intermediates prior to LC-MS/MS quantification, as previously reported^20, 33. […]

IMR32 = assay: Seahorse XF96 global bioenergetics in IMR32 cells; format: cell-based; conditions: IMR32, 1 hr
Method: (§1) Cells were plated for 24 hrs., then incubated with the indicated doses of CBR-470 for 1 hr. Under CBR-470-1 treated conditions, cellular ECAR and OCR was recorded for CBR-470 alone, CBR-470+10 mM Glucose, and CBR-470+3 μM Oligomycin.
as §1, with “Genetic manipulation of central glycolytic targets GLO1 and PGK1 regulate viability in the very sensitive colorectal cancer cell line HCT116. […] (FIG. 42). […] Cells” for “Cells”

CC(C)CN[C@H]1CS(=O)(=O)C[C@@H]1S(=O)(=O)c1ccc(Cl)cc1 [CBR-470-1]
cellular MGx levels (IMR32 cells): significant elevation of cellular MGx levels in the first few hours of treatment | glycolytic flux (Extracellular Acidification Rate, ECAR) (IMR32): reduced glycolytic flux and oxidative phosphorylation rate | oxidative phosphorylation rate (Oxygen Consumption Rate, OCR) (IMR32): reduced glycolytic flux and oxidative phosphorylation rate
